Experimental data taken from patent publication US7566712B2, “Biaryl piperazinyl-pyridine analogues” (Neurogen Corporation, priority 2003, dated 2009).

The compounds below were run against T1, human capsaicin receptor (Homo sapiens, UniProt Q8NER1) (assay: Calcium mobilization assay, determination of antagonist activity (Example 6)). Details: determined as described in Example 6 (calcium mobilization, antagonist activity); Table II.
T1 construct: pBK-CMV expression construct encoding the full length human capsaicin receptor; expressed in transfected cells
Type: cell-based
Summary of the method: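 Antagonism measured as inhibition of capsaicin-evoked (final concentration = EC50, from an 8-point 1 nM–3 μM curve) Fluo-3 calcium signal in stable hVR1-HEK293 cells. Test compounds at 1–5 μM final, 0.5–6 h dark preincubation at room temperature. IC50 = concentration giving 50% reduction versus agonist-only response.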

T1 sequence (Q8NER1 whole entry): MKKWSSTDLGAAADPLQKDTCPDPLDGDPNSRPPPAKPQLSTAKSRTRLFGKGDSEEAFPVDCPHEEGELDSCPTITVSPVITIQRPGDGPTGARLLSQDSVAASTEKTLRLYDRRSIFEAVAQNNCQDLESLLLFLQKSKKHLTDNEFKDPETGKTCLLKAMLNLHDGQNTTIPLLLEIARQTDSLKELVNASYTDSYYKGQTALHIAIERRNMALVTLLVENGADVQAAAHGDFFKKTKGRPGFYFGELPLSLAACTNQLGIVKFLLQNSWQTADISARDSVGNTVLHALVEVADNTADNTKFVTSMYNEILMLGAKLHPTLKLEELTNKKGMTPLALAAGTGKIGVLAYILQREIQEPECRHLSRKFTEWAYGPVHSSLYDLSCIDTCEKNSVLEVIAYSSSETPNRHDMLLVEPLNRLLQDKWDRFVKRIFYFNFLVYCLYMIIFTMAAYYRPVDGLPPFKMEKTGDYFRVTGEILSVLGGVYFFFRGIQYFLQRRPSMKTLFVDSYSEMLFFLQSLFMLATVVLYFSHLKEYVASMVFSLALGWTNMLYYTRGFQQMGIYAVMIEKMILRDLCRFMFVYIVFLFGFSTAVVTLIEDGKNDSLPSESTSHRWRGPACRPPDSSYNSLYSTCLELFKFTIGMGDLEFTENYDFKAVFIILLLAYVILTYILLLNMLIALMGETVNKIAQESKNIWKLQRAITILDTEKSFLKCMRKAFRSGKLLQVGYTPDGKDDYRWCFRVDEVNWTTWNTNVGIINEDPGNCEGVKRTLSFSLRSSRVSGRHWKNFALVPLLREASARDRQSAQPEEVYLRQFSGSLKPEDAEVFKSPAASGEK

SMILES | IC50 [nM]
Cc1cccnc1-c1nc(-c2ccc(F)c(Cl)c2)cc(N2CCN(c3ncccc3C(F)(F)F)CC2)n1 [Example 616, 4-(3-chloro-4-fluorophenyl)-2-(3-methylpyridin-2-yl)-6-{4-[3-(trifluoromethyl)pyridin-2-yl]piperazin-1-yl}pyrimidine] | ≤ 1000
Fc1ccc(-c2cc(N3CCN(c4ncccc4C(F)(F)F)CC3)nc(-c3ccncc3)n2)cc1Cl [Example 617, 4-(3-chloro-4-fluorophenyl)-2-pyridin-4-yl-6-{4-[3-(trifluoromethyl)pyridin-2-yl]piperazin-1-yl}pyrimidine] | ≤ 1000
CC(C)c1nccn1-c1nc(-c2cccc(Cl)c2)cc(N2CCN(c3ncccc3C(F)(F)F)CC2)n1 [Example 618, 4-(3-chlorophenyl)-2-(2-isopropyl-1H-imidazol-1-yl)-6-{4-[3-(trifluoromethyl)pyridin-2-yl]piperazin-1-yl}pyrimidine] | ≤ 1000
CN(CC(=O)O)c1nc(-c2ccc(F)c(Cl)c2)cc(N2CCN(c3ncccc3C(F)(F)F)CC2)n1 [Example 619, N-(4-(3-chloro-4-fluorophenyl)-6-{4-[3-(trifluoromethyl)pyridin-2-yl]piperazin-1-yl}pyrimidin-2-yl)-N-methylglycine] | ≤ 1000
C[C@H](Nc1nc(-c2ccc(F)c(Cl)c2)cc(N2CCN(c3ncccc3C(F)(F)F)CC2)n1)C(=O)O [Example 620, N-(4-(3-chloro-4-fluorophenyl)-6-{4-[3-(trifluoromethyl)pyridin-2-yl]piperazin-1-yl}pyrimidin-2-yl)alanine] | ≤ 1000
Fc1ccc(-c2cc(N3CCN(c4ncccc4C(F)(F)F)CC3)nc(N3CCN(CC4CC4)CC3)n2)cc1Cl [Example 624, 4-(3-chloro-4-fluorophenyl)-2-[4-(cyclopropylmethyl)piperazin-1-yl]-6-{4-[3-(trifluoromethyl)pyridin-2-yl]piperazin-1-yl}pyrimidine] | ≤ 1000
CCc1nccn1-c1nc(-c2cccc(Cl)c2)cc(N2CCN(c3ncccc3C(F)(F)F)CC2)n1 [Example 633, 4-(3-chlorophenyl)-2-(2-ethyl-1H-imidazol-1-yl)-6-{4-[3-(trifluoromethyl)pyridin-2-yl]peperazin-1-yl}pyrimidine] | ≤ 1000
Fc1ccc(-c2cc(N3CCN(c4ncccc4C(F)(F)F)CC3)nc(-c3ncco3)n2)cc1Cl [Example 635, 4-(3-chloro-4-fluorophenyl)-2-(1,3-oxazol-2-yl)-6-{4-[3-(trifluoromethyl)pyridin-2-yl]piperazin-1-yl}pyrimidine] | ≤ 1000
Cc1cn(-c2nc(-c3cccc(Cl)c3)cc(N3CCN(c4ncccc4C(F)(F)F)CC3)n2)c(C)n1 [Example 637, 4-(3-chlorophenyl)-2-(2,4-dimethyl-1H-imidazol-1-yl)-6-(4-[3-(trifluoromethyl)pyridin-2-yl]piperazin-1-yl}pyrimidine] | ≤ 1000
Cc1cc(-c2cc(N3CCN(c4ncccc4C(F)(F)F)CC3)nc(Cl)n2)ccc1F [Example 638, 2-chloro-4-(4-fluoro-3-methylphenyl)-6-{4-[3-(trifluoromethyl)pyridin-2-yl]piperazin-1-yl}pyrimidine] | ≤ 1000
CNc1nc(-c2ccc(F)c(Cl)c2)cc(N2CCN(c3ncccc3C(F)(F)F)CC2)n1 [Example 639, 4-(3-chloro-4-fluorophenyl)-N-methyl-6-{4-[3-(trifluoromethyl)pyridin-2-yl]piperazin-1-yl}pyrimidin-2-amine] | ≤ 1000
Cc1cc(-c2cc(N3CCN(c4ncccc4C(F)(F)F)CC3)nc(N(C)C(C)C)n2)ccc1F [Example 640, 4-(4-fluoro-3-methylphenyl)-N-isopropyl-N-methyl-6-{4-[3-(trifluoromethyl)pyridin-2-yl]piperazin-1-yl}pyrimidin-2-amine] | ≤ 1000
Cc1cc(-c2cc(N3CCN(c4ncccc4C(F)(F)F)CC3)nc(N3CCN(C(=O)OC(C)(C)C)CC3)n2)ccc1F [Example 643, tert-butyl 4-(4-(4-fluoro-3-methylphenyl)-6-{4-[3-(trifluoromethyl)pyridin-2-yl]piperazin-1-yl}pyrimidin-2-yl)piperazine-1-carboxylate] | ≤ 1000
CC(C)N(CCO)c1nc(-c2ccc(F)c(Cl)c2)cc(N2CCN(c3ncccc3C(F)(F)F)CC2)n1 [Example 644, 2-[(4-(3-chloro-4-fluorophenyl)-6-{4-[3-(trifluoromethyl)pyridin-2-yl]piperazin-1-yl}pyrimidin-2-yl)(isopropyl)amino]ethanol] | ≤ 1000
Cc1cc(-c2cc(N3CCN(c4ncccc4C(F)(F)F)CC3)nc(N3CCNCC3)n2)ccc1F [Example 645, 4-(4-fluoro-3-methylphenyl)-2-piperazin-1-yl-6-{4-[3-(trifluoromethyl)pyridin-2-yl]piperazin-1-yl}pyrimidine] | ≤ 1000
CCc1nc(C)cn1-c1nc(-c2cccc(Cl)c2)cc(N2CCN(c3ncccc3C(F)(F)F)CC2)n1 [Example 647, 4-(3-chlorophenyl)-2-(2-ethyl-4-methyl-1H-imidazol-1-yl)-6-(4-[3-(trifluoromethyl)pyridin-2-yl]piperazin-1-yl}pyrimidine] | ≤ 1000
CCc1nccn1-c1nc(-c2ccc(F)c(Cl)c2)cc(N2CCN(c3ncccc3C(F)(F)F)CC2)n1 [Example 648, 4-(3-chloro-4-fluorophenyl)-2-(2-ethyl-1H-imidazol-1-yl)-6-{4-[3-(trifluoromethyl)pyridin-2-yl]piperazin-1-yl}pyrimidine] | ≤ 1000

More lines, now with the values ahead:

IC50 [nM] | SMILES
≤ 1000 | CCN1CCN(c2nc(-c3ccc(F)c(Cl)c3)cc(N3CCN(c4ncccc4C(F)(F)F)CC3)n2)CC1 [Example 623, 4-(3-chloro-4-fluorophenyl)-2-(4-ethylpiperazin-1-yl)-6-{4-[3-(trifluoromethyl)pyridin-2-yl]piperazin-1-yl}pyrimidine]
≤ 1000 | CC(=O)N1CCN(c2nc(-c3ccc(F)c(Cl)c3)cc(N3CCN(c4ncccc4C(F)(F)F)CC3)n2)CC1 [Example 625, 2-(4-acetylpiperazin-1-yl)-4-(3-chloro-4-fluorophenyl)-6-{4-[3-(trifluoromethyl)pyridin-2-yl]piperazin-1-yl}pyrimidine]
≤ 1000 | CCC(=O)N1CCN(c2nc(-c3ccc(F)c(Cl)c3)cc(N3CCN(c4ncccc4C(F)(F)F)CC3)n2)CC1 [Example 626, 4-(3-chloro-4-fluorophenyl)-2-(4-propionylpiperazin-1-yl)-6-{4-[3-(trifluoromethyl)pyridin-2-yl]piperazin-1-yl}pyrimidine]
≤ 1000 | C[C@@H]1CN(c2nc(-c3ccc(F)c(Cl)c3)cc(N3CCN(c4ncccc4C(F)(F)F)CC3)n2)[C@@H](C)CN1 [Example 627, 4-(3-chloro-4-fluorophenyl)-2-[(2S,5R)-2,5-dimethylpiperazin-1-yl]-6-{4-[3-(trifluoromethyl)pyridin-2-yl]piperazin-1-yl}pyrimidine]
≤ 1000 | C[C@@H]1CN(c2nc(-c3ccc(F)c(Cl)c3)cc(N3CCN(c4ncccc4C(F)(F)F)CC3)n2)[C@@H](C)CN1C [Example 628, 4-(3-chloro-4-fluorophenyl)-6-{4-[3-(trifluoromethyl)pyridin-2-yl]piperazin-1-yl}-2-[(2S,5R)-2,4,5-trimethylpiperazin-1-yl]pyrimidine]
≤ 1000 | CC1CNCCN1c1nc(-c2ccc(F)c(Cl)c2)cc(N2CCN(c3ncccc3C(F)(F)F)CC2)n1 (stereo not shown) [Example 629, 4-(3-chloro-4-fluorophenyl)-2-(2-methylpiperazin-1-yl)-6-{4-[3-(trifluoromethyl)pyridin-2-yl]piperazin-1-yl}pyrimidine]
≤ 1000 | CC1CN(C)CCN1c1nc(-c2ccc(F)c(Cl)c2)cc(N2CCN(c3ncccc3C(F)(F)F)CC2)n1 (stereo not shown) [Example 630, 4-(3-chloro-4-fluorophenyl)-2-(2,4-dimethylpiperazin-1-yl)-6-{4-[3-(trifluoromethyl)pyridin-2-yl]piperazin-1-yl}pyrimidine]
≤ 1000 | Cc1cncc(-c2cc(N3CCN(c4ncccc4C(F)(F)F)CC3)nc(N3CCOCC3)n2)c1 [Example 631, 4-(4-(5-methylpyridin-3-yl)-6-{4-[3-(trifluoromethyl)pyridin-2-yl]piperazin-1-yl}pyrimidin-2-yl)morpholine]
≤ 1000 | CC1CN(c2cc(-c3ccc(F)c(Cl)c3)nc(N3CCOCC3)n2)CCN1c1ccccn1 (stereo not shown) [Example 632, 4-[4-(3-chloro-4-fluorophenyl)-6-(3-methyl-4-pyridin-2-ylpiperazin-1-yl)pyrimidin-2-yl]morpholine]
≤ 1000 | CC1CN(c2nc(-c3ccc(F)c(Cl)c3)cc(N3CCN(c4ncccc4C(F)(F)F)CC3)n2)CCN1C (stereo not shown) [Example 634, 4-(3-chloro-4-fluorophenyl)-2-(3,4-dimethylpiperazin-1-yl)-6-{4-[3-(trifluoromethyl)pyridin-2-yl]piperazin-1-yl}pyrimidine]
≤ 1000 | CC1(C)CN(c2nc(-c3ccc(F)c(Cl)c3)cc(N3CCN(c4ncccc4C(F)(F)F)CC3)n2)CCO1 [Example 636, 4-(4-(3-chloro-4-fluorophenyl)-6-{4-[3-(trifluoromethyl)pyridin-2-yl]piperazin-1-yl}pyrimidin-2-yl)-2,2-dimethylmorpholine]
≤ 1000 | Cc1cc(-c2cc(N3CCN(c4ncccc4C(F)(F)F)CC3)nc(N3CCNC(C)C3)n2)ccc1F (stereo not shown) [Example 641, 4-(4-fluoro-3-methylphenyl)-2-(3-methylpiperazin-1-yl)-6-{4-[3-(trifluoromethyl)pyridin-2-yl]piperazin-1-yl}pyrimidine]
≤ 1000 | Cc1cc(-c2cc(N3CCN(c4ncccc4C(F)(F)F)CC3)nc(N3CCCCC3C)n2)ccc1F (stereo not shown) [Example 642, 4-(4-fluoro-3-methylphenyl)-2-(2-methylpiperidin-1-yl)-6-{4-[3-(trifluoromethyl)pyridin-2-yl]piperazin-1-yl}pyrimidine]
≤ 1000 | Cc1cccnc1N1CCN(c2cc(-c3ccc(F)c(Cl)c3)nc(N3CCOCC3)n2)CC1C (stereo not shown) [Example 646, 4-{4-(3-chloro-4-fluorophenyi)-6-[3-methyl-4-(3-methylpyridin-2-yl)piperazin-1-yl]pyrimidin-2-yl}morpholine]
